Article PMC8042910, “Adiponectin-mimetic novel nonapeptide rescues aberrant neuronal metabolic-associated memory deficits in Alzheimer’s disease” (Molecular Neurodegeneration, 2021)
Residues, ends and D or L forms follow the SMILES beside them.

Key:
AdipoR1/p-AMPK signaling = AdipoR1/p-AMPK signaling in in vitro AD models (immunoblot, ELISA, AMPK assay); format: cell-based, human; conditions: 10 μM, 12 h
Experimental: Human neuroblastoma SH-SY5Y cells were seeded (in 6-well culture plates for immunoblotting and in chamber slides for immunofluorescence) in DMEM (Dulbecco’s modified Eagle medium) containing 10% fetal bovine serum (FBS) and 1% antibiotics (penicillin-streptomycin) and incubated at 37 °C in humidified air containing 5% CO2. Once the cells reached 70–80% confluence, the cells were transfected using the pCAX vector containing the APPswe/ind gene using Lipofectamine 3000 (Life Technologies) according to the provider’s protocols. […]
SH-SY5Y (2×10^4/ml) cells used for ELISA and AMPK assays were cultured in 35-mm dishes in the presence of culture medium of DMEM containing FBS (10%) and antibiotics (1%) at 37°C in humidified air containing 5% CO2 to 70-75% confluences. […] Seventy-two hours after transfections, cells were treated with Os-pep (10 µM) for 12 h and cell lysates were collected and analyzed using ELISAs and immunoassays, as appropriate.
The AdipoR1 expressions were measured in the brain homogenates from APP/PS1 and Adipo-^/- mice and in lysates from APPswe/ind-overexpressed SH-SY5Y cells transfected with the AdipoR1 siRNA and treated Os-pep (10 µM) in vitro using the mouse and human AdipoR1 ELISA kits, accordingly to the provider’s instructions (MyBioSource). […]

[1] = Body weight measurements of the mice; format: in vivo, mouse; conditions: APP/PS1, HFD and Adipo−/− mice vs Veh-treated, 5 μg/g, i.p., alternating days for 45 days, n = 13/group
Experimental: We monitored and weighed the mice three times per week to examine the effect of Os-pep dosage regimen (5 µg/g, i.p., on alternating days for 45 days) on the animals’ body weights. At the completion of the treatment, we calculated the average change in the body weight of the mice. At the completion of the treatments and behavioral experiments, blood samples were collected by cardiac puncture of the right atrium. The serum was collected from whole blood by centrifugation (3000 rpm for 10 min) at room temperature and was stored at -20 °C until it was processed for biochemical analyses by SCL Labs (Seoul Medical Science Institute) to evaluate various metabolic parameters, e.g., glucose (Glu), free fatty acids (FFA), total cholesterol (TC), triglycerides (TG), high density lipoprotein (HDL) and low density lipoprotein (LDL) levels.

Synap and PSD95 = Synap and PSD95 in APPswe/ind-overexpressing SH-SY5Y cells, immunoblot; format: cell-based, human; conditions: Os-pep 10 μM
Experimental: Human neuroblastoma SH-SY5Y cells were seeded (in 6-well culture plates for immunoblotting and in chamber slides for immunofluorescence) in DMEM (Dulbecco’s modified Eagle medium) containing 10% fetal bovine serum (FBS) and 1% antibiotics (penicillin-streptomycin) and incubated at 37 °C in humidified air containing 5% CO2. Once the cells reached 70–80% confluence, the cells were transfected using the pCAX vector containing the APPswe/ind gene using Lipofectamine 3000 (Life Technologies) according to the provider’s protocols. AdipoR1 siRNA (h) (SC-60123) and AMPK siRNA (h) (SC-45312) (Santa Cruz Biotechnology, Inc.) were used at a concentration of 10 μM per transfection and expressed for 72 h according to the manufacturer’s protocol (Santa Cruz Biotechnology, Inc.). A negative siRNA (Ambion, Thermo Fisher Scientific) was used as a control. Seventy-two hours after the transfections, the cells were exposed to Os-pep (10 μM) for 12 h and then subjected to immunoblotting and immunofluorescence analyses.
Human neuroblastoma SH-SY5Y cells were treated with 1 µM of insulin for 48 h to produce intrinsic insulin-resistant human neuroblastoma (SH-SY5YIR) cells. […]

C[C@@H](O)[C@H](NC(=O)[C@@H]1CCCN1C(=O)CNC(=O)[C@H](CS)NC(=O)[C@@H]1CCCN1C(=O)CNC(=O)[C@H](CCC(N)=O)NC(=O)[C@@H](NC(=O)[C@@H](N)CS)[C@@H](C)O)C(=O)O [Os-pep] (H-CTQGPCGPT-OH; N-terminus and C-terminus assumed)
AdipoR1/AMPK signaling with AdipoR1 knockdown (AdipoR1/p-AMPK signaling; APPswe/ind SH-SY5Y with AdipoR1 siRNA, ELISA and AMPK assay): did not promote the stimulation of AdipoR1/AMPK signaling | neuronal AdipoR1/p-AMPK signaling (AdipoR1/p-AMPK signaling; AβO-treated and human APPswe/ind-overexpressing SH-SY5Y cells): significantly increased neuronal AdipoR1/p-AMPK signaling | fold-increase in body weight [1]: smaller fold-increase in the body weight | Synap and PSD95 expression with AdipoR1 siRNA (Synap and PSD95; APPswe/ind-overexpressing SH-SY5Y cells exposed to AdipoR1 siRNA): did not restore or increase | Synap and PSD95 expression (Synap and PSD95; APPswe/ind-overexpressing SH-SY5Y cells): restored and significantly increased
